Assay results from BindingDB's records for PubMed 32883635 (National Institute of Pharmaceutical Education and Research …, 2020).

Assays:
[1] = biological target: T1, Enoyl-[acyl-carrier-protein] reductase [NADPH] FabI (Staphylococcus aureus (strain MRSA252), UniProt Q6GI75); experiment: Inhibition of Staphylococcus aureus FabI assessed as inhibition of bacterial growth by measuring the NADH consumption rate at 20 mins
T1 sequence (Q6GI75 whole entry): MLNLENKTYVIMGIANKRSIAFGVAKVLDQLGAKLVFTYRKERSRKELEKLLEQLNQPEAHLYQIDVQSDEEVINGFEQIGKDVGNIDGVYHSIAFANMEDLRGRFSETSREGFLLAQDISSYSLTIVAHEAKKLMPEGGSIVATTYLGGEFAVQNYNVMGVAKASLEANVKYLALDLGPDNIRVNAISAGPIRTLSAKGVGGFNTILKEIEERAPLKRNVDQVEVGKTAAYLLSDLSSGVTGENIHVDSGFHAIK

[2] = Inhibition of wild type Escherichia coli FabI assessed as inhibition of bacterial growth

`NS(=O)(=O)C1C=CC(NC(=O)CCCN2CCOCC2)C=C1` (stereo unspecified) showed an IC50 [1] of 0.31 nM.
Compound `NS(=O)(=O)c1ccc(/N=C/C2=C(Cl)CCC=C2)cc1` has an IC50 [1] of 0.35 nM.
Work on `COc1cc(/C=N/c2ccc(S(N)(=O)=O)cc2)ccc1C(C)=O` yielded an IC50 [1] of 0.33 nM.
Compound `Oc1ccccc1Oc1ccccc1` [2-phenoxylphenol] has a Ki [2] of 0.5 nM.
In the case of `Cc1ccc(Oc2ccccc2)c(O)c1` [PT53], the Ki [2] is reported as 7 nM.
`Oc1cc(F)ccc1Oc1ccccc1` [PT55] showed a Ki [2] of 0.7 nM.
